Consider 14 compounds from ChEMBL document CHEMBL5113380, “Functionalized quinoxalinones as privileged structures with broad-ranging pharmacological activities” (Eur J Med Chem, 2022).

In brackets after ≈: the same amount, converted by molar mass.

Series [1] has as its target Amine oxidase [flavin-containing] A (Homo sapiens, UniProt P21397). The series is described as follows: Inhibition of MAO-A (unknown origin).
For series [2], the target named is Amine oxidase [flavin-containing] B (Homo sapiens, UniProt P27338). The series is described as follows: Inhibition of MAO-B (unknown origin).
Sequence of Amine oxidase [flavin-containing] B (P27338 whole entry): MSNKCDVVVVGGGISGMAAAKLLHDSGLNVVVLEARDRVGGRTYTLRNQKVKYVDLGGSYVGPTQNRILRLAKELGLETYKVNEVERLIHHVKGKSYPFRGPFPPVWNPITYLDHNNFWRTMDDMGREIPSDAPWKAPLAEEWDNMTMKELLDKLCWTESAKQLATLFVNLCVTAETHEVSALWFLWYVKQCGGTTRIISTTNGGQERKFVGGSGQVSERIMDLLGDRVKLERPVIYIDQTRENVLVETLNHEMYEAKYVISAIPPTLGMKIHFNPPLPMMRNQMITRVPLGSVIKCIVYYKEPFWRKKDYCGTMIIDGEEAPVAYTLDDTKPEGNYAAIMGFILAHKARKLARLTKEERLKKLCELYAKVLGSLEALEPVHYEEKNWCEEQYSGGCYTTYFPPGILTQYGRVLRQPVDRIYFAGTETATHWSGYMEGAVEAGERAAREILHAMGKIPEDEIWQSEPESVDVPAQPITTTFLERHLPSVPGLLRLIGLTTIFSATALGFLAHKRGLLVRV
In series [3] the target is T1, Fibroblast growth factor receptor 1 (Homo sapiens, UniProt P11362). The series is described as follows: Inhibition of FGFR1 (unknown origin) using ULight-JAK-1 (Tyr1023) peptide as substrate incubated for 90 mins and measured after 1 hr by LANCE Ultra TR-FRET assay. (In general: Time-resolved FRET reads energy transfer from a long-lived donor to a nearby acceptor.)
Target sequence in this assay (P11362 whole entry): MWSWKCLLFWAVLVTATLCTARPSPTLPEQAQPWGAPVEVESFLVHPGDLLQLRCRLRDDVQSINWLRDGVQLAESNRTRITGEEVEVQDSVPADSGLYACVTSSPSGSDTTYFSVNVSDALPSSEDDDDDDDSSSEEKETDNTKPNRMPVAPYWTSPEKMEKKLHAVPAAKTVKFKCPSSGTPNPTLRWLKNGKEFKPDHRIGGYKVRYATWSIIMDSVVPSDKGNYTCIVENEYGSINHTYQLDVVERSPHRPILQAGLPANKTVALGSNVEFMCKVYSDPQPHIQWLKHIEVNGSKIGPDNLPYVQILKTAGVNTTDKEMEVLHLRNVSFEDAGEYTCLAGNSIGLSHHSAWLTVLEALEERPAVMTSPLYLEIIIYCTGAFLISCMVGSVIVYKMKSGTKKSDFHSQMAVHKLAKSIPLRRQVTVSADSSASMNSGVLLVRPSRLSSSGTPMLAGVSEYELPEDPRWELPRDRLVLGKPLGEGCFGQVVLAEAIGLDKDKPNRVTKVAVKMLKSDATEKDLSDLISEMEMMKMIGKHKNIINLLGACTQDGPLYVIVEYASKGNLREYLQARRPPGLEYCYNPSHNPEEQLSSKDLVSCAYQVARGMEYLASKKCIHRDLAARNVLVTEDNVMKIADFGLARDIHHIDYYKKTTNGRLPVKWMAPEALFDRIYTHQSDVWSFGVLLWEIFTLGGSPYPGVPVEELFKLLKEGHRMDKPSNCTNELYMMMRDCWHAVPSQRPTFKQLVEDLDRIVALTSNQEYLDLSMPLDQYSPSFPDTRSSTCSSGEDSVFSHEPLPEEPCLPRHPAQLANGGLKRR

The test system of series [4] is L02. The series is described as follows: Antiproliferative activity against human HL7702 cells after 72 hrs by MTT assay. The series is classed as functional, cell-based. To be noted: L02, 72 h. A general note: Formazan colour is commonly taken as a measure of viable cells.
In series [5] the test system is NCI-H460. In words: Antiproliferative activity against human NCI-H460 cells after 72 hrs by MTT assay. The series is classed as functional, cell-based. To be noted: NCI-H460, 72 h.
Series [6] addresses Platelet-derived growth factor receptor beta (Homo sapiens, UniProt P09619). The series is described as follows: Inhibition of PDGFR-beta (unknown origin).
The test system of series [7] is HCT-116. The series is described as follows: Antiproliferative activity against human HCT-116 cells after 72 hrs by MTT assay. The class given is functional, cell-based. Conditions: HCT-116, 72 h.
Series [8] relates to HeLa 229. The series is described as follows: Antiproliferative activity against human HeLa 229 cells after 72 hrs by MTT assay. The class given is functional, cell-based. Conditions: HeLa 229, 72 h.
Series [9] relates to B16-F10. In words: Antiproliferative activity against mouse B16-F10 cells after 72 hrs by MTT assay. The class given is functional, cell-based. To be noted: B16-F10, 72 h.
Series [10] concerns HT-29. The series is described as follows: Antiproliferative activity against human HT-29 cells. The series is classed as functional, cell-based.
Series [11] concerns NCI-H460. In words: Antiproliferative activity against human NCI-H460 cells. The series is classed as functional, cell-based.
Series [12] concerns the target Hepatocyte growth factor receptor (Homo sapiens, UniProt P08581). In words: Inhibition of c-MET (unknown origin).
Series [13] deals with A549. The series is described as follows: Antiproliferative activity against human A549 cells. The class given is functional, cell-based.
For series [14], the target named is Fibroblast growth factor receptor 3 (Homo sapiens, UniProt P22607). In words: Inhibition of FGFR3 (unknown origin).
Sequence of Fibroblast growth factor receptor 3 (P22607 whole entry): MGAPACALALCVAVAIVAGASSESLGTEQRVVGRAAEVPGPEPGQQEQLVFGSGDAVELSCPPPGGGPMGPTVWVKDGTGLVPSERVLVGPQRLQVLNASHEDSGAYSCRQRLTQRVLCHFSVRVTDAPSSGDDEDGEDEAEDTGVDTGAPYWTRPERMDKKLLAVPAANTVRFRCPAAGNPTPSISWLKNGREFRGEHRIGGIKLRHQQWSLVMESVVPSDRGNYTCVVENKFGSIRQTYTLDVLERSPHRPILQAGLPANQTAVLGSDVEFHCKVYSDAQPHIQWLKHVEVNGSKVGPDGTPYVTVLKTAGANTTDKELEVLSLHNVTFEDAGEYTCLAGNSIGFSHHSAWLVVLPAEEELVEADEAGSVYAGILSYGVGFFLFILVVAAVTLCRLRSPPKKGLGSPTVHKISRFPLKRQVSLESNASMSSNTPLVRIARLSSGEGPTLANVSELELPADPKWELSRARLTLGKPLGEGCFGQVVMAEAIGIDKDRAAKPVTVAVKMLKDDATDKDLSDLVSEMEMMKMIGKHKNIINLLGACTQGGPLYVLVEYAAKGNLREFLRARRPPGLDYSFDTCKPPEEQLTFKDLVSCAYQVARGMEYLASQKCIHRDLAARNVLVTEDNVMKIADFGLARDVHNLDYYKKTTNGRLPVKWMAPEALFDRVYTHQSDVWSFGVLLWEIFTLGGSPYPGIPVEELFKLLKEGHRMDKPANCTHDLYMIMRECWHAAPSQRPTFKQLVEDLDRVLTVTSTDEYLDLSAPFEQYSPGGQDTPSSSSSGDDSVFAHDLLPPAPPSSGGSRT
The test system of series [15] is Trichomonas vaginalis. The series is described as follows: Antiprotozoal activity against Trichomonas vaginalis. The series is classed as functional, organism-based.
Series [16] concerns Rattus norvegicus. In words: Antiobesity activity in fasted Sprague-Dawley rat assessed as inhibition of food intake for more than 2 hrs when administered orally. The class given is functional. Conditions: route po.
Series [17] relates to Rattus norvegicus. The series is described as follows: Antiobesity activity in fasted Sprague-Dawley rat assessed as inhibition of food intake for more than 2 hrs when administered intraperitoneally. The series is classed as functional. Conditions: route ip.
Series [18] can be described thus: Antiproliferative activity against human U-87 MG cells. The series is classed as functional, cell-based, U-87MG ATCC.
The target in series [19] is T1, Fibroblast growth factor receptor 1. The series is described as follows: Inhibition of FGFR1 (unknown origin) using ULight-JAK-1 (Tyr1023) peptide as substrate incubated for 90 mins at 10 uM and measured after 1 hr by LANCE Ultra TR-FRET assay relative to control.
Target sequence in this assay (P11362 22-822 limits assumed): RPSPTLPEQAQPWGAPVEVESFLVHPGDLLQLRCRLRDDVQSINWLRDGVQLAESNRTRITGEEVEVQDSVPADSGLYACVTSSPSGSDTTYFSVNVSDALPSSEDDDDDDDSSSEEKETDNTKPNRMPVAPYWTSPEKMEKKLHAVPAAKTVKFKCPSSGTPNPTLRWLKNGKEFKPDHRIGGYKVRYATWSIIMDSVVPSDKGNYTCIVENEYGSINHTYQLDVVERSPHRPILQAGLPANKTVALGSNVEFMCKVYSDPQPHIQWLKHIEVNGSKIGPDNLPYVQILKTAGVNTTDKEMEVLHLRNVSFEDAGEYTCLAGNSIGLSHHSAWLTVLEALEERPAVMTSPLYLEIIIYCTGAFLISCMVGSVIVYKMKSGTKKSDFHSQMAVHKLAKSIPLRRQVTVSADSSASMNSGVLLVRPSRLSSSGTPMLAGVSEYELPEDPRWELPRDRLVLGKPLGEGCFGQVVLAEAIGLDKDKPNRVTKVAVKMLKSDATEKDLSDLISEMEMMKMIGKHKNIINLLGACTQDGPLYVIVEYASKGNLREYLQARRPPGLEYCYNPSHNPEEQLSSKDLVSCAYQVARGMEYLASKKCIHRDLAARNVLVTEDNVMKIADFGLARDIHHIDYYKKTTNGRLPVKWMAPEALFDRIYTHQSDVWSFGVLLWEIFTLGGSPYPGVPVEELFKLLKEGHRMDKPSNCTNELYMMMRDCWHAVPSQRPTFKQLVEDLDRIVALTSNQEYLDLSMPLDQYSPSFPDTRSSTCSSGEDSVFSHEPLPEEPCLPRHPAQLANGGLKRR
Series [20] can be described thus: Inhibition of DC-SIGN (unknown origin).
Series [21] relates to Human immunodeficiency virus 1. The series is described as follows: Antiviral activity against HIV-1 74V. Conditions: Human immunodeficiency virus 1, 74V. The class given is functional, organism-based.
Series [22] addresses Aminopeptidase N (Homo sapiens, UniProt P15144).
Series [23] relates to Human immunodeficiency virus 1. In words: Antiviral activity against HIV-1 A17. The series is classed as functional, organism-based. Conditions: Human immunodeficiency virus 1, A17.
The test system of series [24] is Human immunodeficiency virus 1. In words: Antiviral activity against HIV1 measured by CPE assay. The class given is functional, organism-based.
Series [25] deals with Human immunodeficiency virus 1. The series is described as follows: Antiviral activity against HIV-1 IIIB. The class given is functional, organism-based. Conditions: Human immunodeficiency virus 1, IIIB.
The nature of series [26]: Displacement of [3H]flunitrazepam from GABAA/benzodiazepine receptor complex (unknown origin). On the set-up: species or system Homo sapiens. (In general: Displacement assays read how much labelled ligand stays bound in the presence of the test substance.)
Series [27] is described as follows: Partial agonist activity at GABAA/benzodiazepine receptor complex (unknown origin) measured by [35S]TBPS based functional assay. On the set-up: species or system Homo sapiens.
Series [28] can be described thus: Metabolic stability in human liver microsomes assessed as compound remaining after 1 hr. The series is classed as ADME, Microsome. Conditions: read-out: Stability.
In series [29] the test system is Candida albicans. In words: Antifungal activity against Candida albicans assessed as diameter zone of inhibition. The series is classed as functional.
Series [30] concerns the target T2, Glutamate receptor ionotropic AMPA (Homo sapiens, UniProt P42261+P42262+P42263+P48058). In words: Displacement of […] from AMPA receptor (unknown origin). The class given is protein-complex assay.
The target of series [31] is Glutamate receptor 2 (Homo sapiens, UniProt P42262). The series is described as follows: Binding affinity to GluA2 receptor (unknown origin).
In series [32] the target is Glutamate receptor ionotropic, kainate 2 (Homo sapiens, UniProt Q13002). In words: Binding affinity to GluK2 receptor (unknown origin).
For series [33], the target named is T3, Glutamate receptor ionotropic, kainate 1 (Homo sapiens, UniProt P39086). The series is described as follows: Binding affinity to GluK1 ligand binding domain (unknown origin).
T3 sequence (P39086 whole entry, the tested form may be a part): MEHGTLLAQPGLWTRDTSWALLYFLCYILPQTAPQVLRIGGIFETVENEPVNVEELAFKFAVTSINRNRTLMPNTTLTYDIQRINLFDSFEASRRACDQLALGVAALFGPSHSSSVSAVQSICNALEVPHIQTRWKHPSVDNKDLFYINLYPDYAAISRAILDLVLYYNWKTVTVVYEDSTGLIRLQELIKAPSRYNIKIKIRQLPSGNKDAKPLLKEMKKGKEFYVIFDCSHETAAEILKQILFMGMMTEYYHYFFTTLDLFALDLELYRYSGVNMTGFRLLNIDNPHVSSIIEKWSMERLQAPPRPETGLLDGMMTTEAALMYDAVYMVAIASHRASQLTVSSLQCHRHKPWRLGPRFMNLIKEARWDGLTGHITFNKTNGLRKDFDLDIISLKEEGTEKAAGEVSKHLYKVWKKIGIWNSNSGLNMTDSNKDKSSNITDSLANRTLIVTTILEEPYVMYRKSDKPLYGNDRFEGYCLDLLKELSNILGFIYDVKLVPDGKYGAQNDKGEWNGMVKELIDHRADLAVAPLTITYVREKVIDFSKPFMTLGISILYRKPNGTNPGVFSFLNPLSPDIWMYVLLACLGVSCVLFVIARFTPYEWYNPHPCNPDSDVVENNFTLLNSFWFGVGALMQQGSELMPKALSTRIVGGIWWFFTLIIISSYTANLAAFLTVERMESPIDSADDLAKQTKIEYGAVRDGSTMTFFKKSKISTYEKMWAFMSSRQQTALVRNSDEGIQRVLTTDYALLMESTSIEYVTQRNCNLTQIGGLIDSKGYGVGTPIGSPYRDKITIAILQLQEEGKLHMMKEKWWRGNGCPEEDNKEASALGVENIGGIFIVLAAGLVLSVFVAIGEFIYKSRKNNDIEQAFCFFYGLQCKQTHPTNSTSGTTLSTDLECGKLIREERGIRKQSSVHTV
In series [34] the target is T2, Glutamate receptor ionotropic AMPA. In words: Displacement of [3H]kainic acid from AMPA receptor (unknown origin). The series is classed as protein-complex assay.
For series [35] the target is unchanged. The series is described as follows: Displacement of [3H]AMPA from AMPA receptor (unknown origin). The series is classed as protein-complex assay.
The target in series [36] is T3, Glutamate receptor ionotropic, kainate 1. The series is described as follows: Binding affinity to GluK1 receptor (unknown origin).

Sequence of Platelet-derived growth factor receptor beta (P09619 whole entry): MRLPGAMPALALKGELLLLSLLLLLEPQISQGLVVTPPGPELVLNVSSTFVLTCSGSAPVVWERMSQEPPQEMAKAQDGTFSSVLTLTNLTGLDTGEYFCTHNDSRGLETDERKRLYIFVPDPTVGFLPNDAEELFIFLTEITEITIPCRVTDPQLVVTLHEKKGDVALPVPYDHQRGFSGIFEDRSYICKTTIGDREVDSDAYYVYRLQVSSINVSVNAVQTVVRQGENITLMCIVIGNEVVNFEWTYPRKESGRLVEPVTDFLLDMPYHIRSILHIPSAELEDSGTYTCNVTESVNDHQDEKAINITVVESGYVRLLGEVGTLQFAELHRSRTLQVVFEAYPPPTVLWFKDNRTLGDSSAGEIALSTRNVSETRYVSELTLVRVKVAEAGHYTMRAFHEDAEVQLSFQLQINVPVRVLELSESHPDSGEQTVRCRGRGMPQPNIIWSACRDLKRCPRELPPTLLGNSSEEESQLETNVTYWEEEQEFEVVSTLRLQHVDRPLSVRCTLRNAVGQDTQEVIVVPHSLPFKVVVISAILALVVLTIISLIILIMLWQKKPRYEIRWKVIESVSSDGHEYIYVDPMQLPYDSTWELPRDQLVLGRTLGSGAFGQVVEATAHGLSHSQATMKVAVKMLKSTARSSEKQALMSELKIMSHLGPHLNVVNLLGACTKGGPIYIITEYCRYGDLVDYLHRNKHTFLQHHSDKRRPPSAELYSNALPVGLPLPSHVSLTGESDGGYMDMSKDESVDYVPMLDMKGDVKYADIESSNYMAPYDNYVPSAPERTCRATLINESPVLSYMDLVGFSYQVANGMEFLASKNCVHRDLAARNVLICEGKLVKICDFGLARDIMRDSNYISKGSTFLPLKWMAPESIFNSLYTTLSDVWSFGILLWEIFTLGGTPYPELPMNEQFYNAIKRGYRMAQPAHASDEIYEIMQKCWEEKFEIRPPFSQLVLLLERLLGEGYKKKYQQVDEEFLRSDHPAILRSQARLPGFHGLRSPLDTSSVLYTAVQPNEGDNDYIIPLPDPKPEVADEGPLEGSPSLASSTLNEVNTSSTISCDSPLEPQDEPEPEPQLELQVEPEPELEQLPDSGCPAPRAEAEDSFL

A word on the IC50: it is the midpoint of a concentration-inhibition curve. Read a low IC50 as higher potency. Regarding `C/C(=N\NC(=O)Cn1c(=O)c(Cc2ccccc2)nc2ccccc21)c1ccc(O)cc1`, the concentration for half-maximal inhibition (IC50) worked out at 0.0016 µM in [1] and 980 µM in series [2].

For `Cn1c(=O)c(/C=C/c2ccccn2)nc2ccccc21`, the half-maximal inhibitory concentration (IC50) in series [3] is 26.7 µM; in series [4] it was 53.7 µM; in series [5] it was 5.78 µM; in series [6], more than 89.5 µM; in [7], 7.63 µM; in series [8], 14.6 µM. This compound also displayed an IC50 in series [9] of 6.64 µM.

`O=C(Nc1ccc(Oc2ccnc(NC(=O)C3CC3)c2)cc1)c1nc2ccccc2n(-c2ccc(F)cc2)c1=O`: the concentration for half-maximal inhibition (IC50) in [10] worked out at 0.65 µM; in series [11], 0.94 µM; in series [12] it was 0.00191 µM; in series [13] it was 1.57 µM.

Consider `O=c1c(/C=C/c2ccccc2Cl)nc2ccccc2n1Cc1ccccc1`, for which the IC50 in [3] is 25.7 µM; in series [4], more than 100 µM; in [5], 18.1 µM; in series [14], 94.5 µM; in series [7] it was more than 50 µM; in [8], more than 50 µM. This compound also showed a concentration for half-maximal inhibition (IC50) in series [9] of 3.39 µM.

As usually defined, the MIC is the least concentration at which growth counts as inhibited. Read a high MIC as weaker potency. As for `CCOC(=O)C(C)c1nc2ccc(C(F)(F)F)cc2[nH]c1=O` (stereo not drawn), it took 100 µg/mL (≈ 318 µM) to inhibit growth in series [15] (MIC).

For orientation: ED50 means the dose at which the effect has come halfway, by size or by number of responders. Consider `O=C1Nc2cc(Cl)c(Cl)cc2N2CCNC[C@H]12`, for which the ED50 stood at 10 mg/kg in [16] and 2 mg/kg in series [17].

For the compound `COc1cc2c(Oc3ccc(NC(=O)c4nc5ccccc5n(C5CCCCC5)c4=O)cc3F)ccnc2cc1OCCCN1CCOCC1`, in series [18], the midpoint of inhibition, the IC50, lay at 0.81 µM.

What is called inhibition is how much of the control response was suppressed. Read a low inhibition as little suppression. Regarding `O=c1[nH]c2ccccc2nc1/C=C/c1ccccn1`, the half-maximal inhibitory concentration (IC50) is 15.3 µM in series [3]; more than 100 µM in [4]; 0.46 µM in series [5]; 0.27 µM in series [7]; 2.89 µM in series [8]; 0.058 µM in [9]. Further, in series [19], the inhibition is 79.3%.

The compound `NS(=O)(=O)c1ccc(CCCC2Nc3ccc(C(=O)N4CCN(c5ccncc5)CC4)cc3NC2=O)cc1` (stereo not drawn) showed an IC50 in series [20] of 0.31 µM.

For orientation: EC50 means the concentration that produces a half-maximal response. A low value points to greater potency. Consider `COc1cccc(/C=N/NC(=O)Cn2c(=O)c(C)nc3ccccc32)c1O`, for which the concentration for a half-maximal effect (EC50) turned out to be 3.48 µM in series [21], 2.46 µM in series [23], 2.79 µM in series [24] and 6.05 µM in series [25]. In series [22], this compound registered an IC50 of 80.9 µM.

Usually Ki stands for a measure of affinity in units of concentration, obtained from inhibition or displacement. Read a low Ki as tighter binding. As for `CC(C)n1c(=O)c2c(-c3ccc(F)cc3)ncn2c2cccc(Cl)c21`, the inhibitory constant (Ki) in series [26] was 0.0146 µM. Besides, in series [27], the concentration for a half-maximal effect (EC50) was found to be 0.00204 µM.

Take `COc1ccc(N2CCN(CCCNC(=O)Cn3c(=O)c4cccn4c4c(C)ccnc43)CC2)cc1`: in series [28], the remaining at 1 h was determined as 22%.

Regarding `CC(C)=NNc1nc2ccccc2[nH]c1=O`, in series [29], the “diameter of the inhibition zone (DIZ)” value turned out to be 31 mm.

Consider `N[C@@H](CCc1ccc2[nH]c(=O)c(=O)[nH]c2c1)C(=O)O`, for which the Ki turned out to be 78 µM in series [30]; 21.3 µM in [31]; 9.52 µM in series [32]; 37.1 µM in series [33]; 16.1 µM in series [36]. Besides, the IC50 in series [34] worked out at 126 µM; in series [35] it was 26 µM.
